Experimental data: US10961215B2, “N-aryl and N-heteroaryl piperidine derivatives as liver X receptor beta agonists, compositions, and their use” (Merck Sharp & Dohme Corp., priority 2016, dated 2021)

Tests used:
[1] = biological target: T1, GST tagged LXRbeta LBD (ligand binding domain) (Homo sapiens, UniProt P55055); assay: LanthaScreen TR-FRET Liver X Receptor Coactivator Assay, LXR beta-LBD (co-activator recruitment; IP and % Emax relative to T0901317); type: biochemical; conditions: for EC50: Inflection Point of co-activator recruitment, LXR beta-LBD, TR-FRET; for Emax: read-out: LXR beta actiivty at max dose (%)
T1 construct: purchased Invitrogen pv4658.pps
T1 sequence (P55055 222-460 limits assumed): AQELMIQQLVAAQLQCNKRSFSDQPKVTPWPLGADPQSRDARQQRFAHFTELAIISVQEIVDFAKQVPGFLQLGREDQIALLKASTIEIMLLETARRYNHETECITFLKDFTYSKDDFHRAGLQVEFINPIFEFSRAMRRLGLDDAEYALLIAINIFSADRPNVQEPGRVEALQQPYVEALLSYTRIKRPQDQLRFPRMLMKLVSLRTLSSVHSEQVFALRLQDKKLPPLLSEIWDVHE
How it was run: (§1)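 TR-FRET coactivator recruitment; LBD + cpd, then fluorescein coactivator peptide/Tb anti-GST Ab mix; RT incubation; IP and Emax vs T0901317.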

[2] = biological target: T2, GST tagged LXRalpha LBD (ligand binding domain) (Homo sapiens, UniProt Q13133); assay: LanthaScreen TR-FRET Liver X Receptor Coactivator Assay, LXR alpha-LBD (co-activator recruitment; IP and % Emax relative to T0901317); type: biochemical; conditions: for LXR alpha IP (nM) / EC50: Inflection Point of co-activator recruitment, LXR alpha-LBD, TR-FRET; for Emax: read-out: LXR alpha actiivty at max dose (%)
T2 construct: purchased Invitrogen pv4655
T2 sequence (Q13133 209-447 limits assumed): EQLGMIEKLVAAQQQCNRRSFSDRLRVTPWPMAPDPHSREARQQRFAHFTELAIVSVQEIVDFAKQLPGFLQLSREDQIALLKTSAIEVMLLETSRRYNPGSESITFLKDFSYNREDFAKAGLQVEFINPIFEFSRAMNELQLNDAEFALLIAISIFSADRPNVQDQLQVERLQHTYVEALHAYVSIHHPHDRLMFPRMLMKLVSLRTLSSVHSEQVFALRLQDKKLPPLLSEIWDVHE
How it was run: as §1

[3] = efficacy at max dose in relation to reference T0901317, LXR beta-LBD
[4] = efficacy at max dose in relation to reference T0901317, LXR alpha-LBD

SMILES	EC50 [1] [µM]	Emax [1, 3] [%]	LXR alpha IP (nM) [2]	Emax [2, 4] [%]	EC50 [2] [µM]	LXR beta actiivty at max dose (%) [1, 3] [%]	LXR alpha actiivty at max dose (%) [2, 4] [%]
CCOc1cccc([C@@](O)(C(=O)NCCCC2CCN(c3ccc(C(=O)N(C)C)c(Cl)n3)CC2)C(F)(F)F)c1 [Example 5-10, (R)-2-chloro-6-(4-(3-(2-(3-ethoxyphenyl)-3,3,3-trifluoro-2-hydroxy-propanamido)propyl)piperidin-1-yl)-N,N-dimethylnicotinamide]	0.343	58	No IP	3			
CN(C)C(=O)c1ccc(N2CCC(CCCNC(=O)[C@](O)(c3cccc(OC(F)(F)F)c3)C(F)(F)F)CC2)nc1Cl [Example 5-12, (R)-2-chloro-N,N-dimethyl-6-(4-(3-(3,3,3-trifluoro-2-hydroxy-2-(3-(trifluoromethoxy)phenyl)propanamido)propyl)piperidin-1-yl)nicotinamide]	1.01	40		40	13.2		
CN(C)C(=O)c1ccc(N2CCC(CCCNC(=O)[C@](O)(c3cc(Cl)cc(Cl)c3)C(F)(F)F)CC2)nc1Cl [Example 5-13, (R)-2-chloro-6-(4-(3-(2-(3,5-dichlorophenyl)-3,3,3-trifluoro-2-hydroxypropanamido)propyl)piperidin-1-yl)-N,N-dimethylnicotinamide]	0.187	54	No IP	9			
CN(C)C(=O)c1ccc(N2CCC(CCCNC(=O)[C@](O)(c3cccc(C4CC4)c3)C(F)(F)F)CC2)nc1Cl [Example 5-14, (R)-2-chloro-6-(4-(3-(2-(3-cyclopropylphenyl)-3,3,3-trifluoro-2-hydroxy-propanamido)propyl)piperidin-1-yl)-N,N-dimethylnicotinamide]	0.207	44	No IP	0			
CN(C)C(=O)c1ccc(N2CCC(CCCNC(=O)C3(c4ccccc4)CCCC3)CC2)nc1Cl [Example 5-15, 2-chloro-N,N-dimethyl-6-(4-(3-(1-phenylcyclopentane-carboxamido)propyl)piperidin-1-yl)nicotinamide]	0.215	83		22	2.73		
CN(C)C(=O)c1ccc(N2CCC(CCCNC(=O)C3(c4ccccc4)CCC3)CC2)nc1Cl [Example 5-16, 2-chloro-N,N-dimethyl-6-(4-(3-(1-phenylcyclobutane-carboxamido)propyl)piperidin-1-yl)nicotinamide]	0.235	83		26	5.22		
COc1cccc([C@@](O)(C(=O)NCCCC2CCN(c3ccc(C(=O)N(C)C)c(Cl)n3)CC2)C(F)(F)F)c1.O=C(O)C(F)(F)F [Example 5-20, (R)-2-chloro-N,N-dimethyl-6-(4-(3-(3,3,3-trifluoro-2-hydroxy-2-(3-methoxyphenyl)propanamido)propyl)piperidin-1-yl)nicotinamide]	0.23	69	No IP	17			
COc1cccc([C@@](O)(C(=O)NCCCC2CCN(c3ccc(C(=O)N(C)C)c(Cl)n3)CC2)C(F)(F)F)c1 [Example 5-23, (R)-2-chloro-N,N-dimethyl-6-(4-(3-(3,3,3-trifluoro-2-hydroxy-2-(3-methoxyphenyl)propanamido)propyl)piperidin-1-yl) nicotinamide]	0.275		No IP			73	16
COc1cccc([C@@](O)(C(=O)N[C@@H](C)CCC2CCN(c3ccc(C(=O)N(C)C)c(Cl)n3)CC2)C(F)(F)F)c1 [Example 6-1, 2-chloro-N,N-dimethyl-6-(4-((S)-3-((R)-3,3,3-trifluoro-2-hydroxy-2-(3-methoxyphenyl)propanamido)butyl)piperidin-1-yl)nicotinamide]	0.379	25	No IP	0			
COc1cccc([C@@](O)(C(=O)N[C@H](C)CCC2CCN(c3ccc(C(=O)N(C)C)c(Cl)n3)CC2)C(F)(F)F)c1 [Example 6-2, 2-chloro-N,N-dimethyl-6-(4-((R)-3-((R)-3,3,3-trifluoro-2-hydroxy-2-(3-methoxyphenyl)propanamido)butyl)piperidin-1-yl)nicotinamide]	0.098	116		29	2.44		
CN(C)C(=O)c1ccc(N2CCC3(CC2)CC3CCN(C)C(=O)[C@@](O)(c2ccccc2)C(F)(F)F)cc1Cl (stereo partly drawn) [Example 7-1, 2-chloro-N,N-dimethyl-4-(1-(2-((S)-3,3,3-trifluoro-2-hydroxy-N-methyl-2-phenylpropanamido)ethyl)-6-azaspiro[2.5]octan-6-yl)benzamide]	0.342	54		10	4.09		

Now from value to molecule:

EC50 [1] [µM]	Emax [1, 3] [%]	LXR alpha IP (nM) [2]	Emax [2, 4] [%]	EC50 [2] [µM]	LXR beta actiivty at max dose (%) [1, 3] [%]	LXR alpha actiivty at max dose (%) [2, 4] [%]	SMILES
0.349	46	No IP	-8				CN(C)C(=O)c1ccc(N2CCC(CCCNC(=O)[C@](O)(c3cccc(OC4CC4)c3)C(F)(F)F)CC2)nc1Cl [Example 5-11, (R)-2-chloro-6-(4-(3-(2-(3-cyclopropoxyphenyl)-3,3,3-trifluoro-2-hydroxypropanamido)propyl)piperidin-1-yl)-N,N-dimethylnicotinamide]
0.401	43	No IP	0				CCc1cccc([C@@](O)(C(=O)NCCCC2CCN(c3ccc(C(=O)N(C)C)c(Cl)n3)CC2)C(F)(F)F)c1 [Example 5-17, (R)-2-chloro-6-(4-(3-(2-(3-ethylphenyl)-3,3,3-trifluoro-2-hydroxypropanamido)propyl)piperidin-1-yl)-N,N-dimethylnicotinamide]
0.99	66	No IP	7				CN(C)C(=O)c1ccc(N2CCC(CCCNC(=O)[C@@]3(c4ccccc4)CCCO3)CC2)nc1Cl [Example 5-18, (S)-2-chloro-N,N-dimethyl-6-(4-(3-(2-phenyltetrahydrofuran-2-carboxamido)propyl)piperidin-1-yl)nicotinamide]
0.16	104		36	2.34			CN(C)C(=O)c1ccc(N2CCC(CCCNC(=O)[C@]3(c4ccccc4)CCCO3)CC2)nc1Cl [Example 5-19, (R)-2-chloro-N,N-dimethyl-6-(4-(3-(2-phenyltetrahydrofuran-2-carboxamido)propyl)piperidin-1-yl)nicotinamide]
0.314	91		36	8.72			CN(C)C(=O)c1ccc(N2CCC(CCCNC(=O)[C@@](O)(c3cccc(O)c3)C(F)(F)F)CC2)nc1Cl [Example 5-21, (S)-2-chloro-N,N-dimethyl-6-(4-(3-(3,3,3-trifluoro-2-hydroxy-2-(3-hydroxyphenyl)propanamido)propyl)piperidin-1-yl)nicotinamide]
1.19	101		31	10.3			CN(C)C(=O)c1ccc(N2CCC(CCCNC(=O)[C@](O)(c3cccc(O)c3)C(F)(F)F)CC2)nc1Cl [Example 5-22, (R)-2-chloro-N,N-dimethyl-6-(4-(3-(3,3,3-trifluoro-2-hydroxy-2-(3-hydroxyphenyl)propanamido)propyl)piperidin-1-yl)nicotinamide]
